{"source": "patent US11219664B2", "about": "“Composition for diagnosing, preventing, or treating vascular smooth muscle cell proliferative diseases using FGF12” (CHUNG-ANG UNIVERSITY INDUSTRY ACADEMIC COOPERATION …, priority 2015, dated 2022)", "molecules": {"B1": {"name": "BMP-4: Bone morphogenic protein-4 (protein)", "chain": "SPKHHSQRARKKNKNCRRHSLYVDFSDVGWNDWIVAPPGYQAFYCHGDCPFPLADHLNSTNHAIVQTLVNSVNSSIPKACCVPTELSAISMLYLDEYDKVVLKNYQEMVVEGCGCR"}, "B2": {"name": "BMP-7: bone morphogenetic protein, promotes differentiation and inhibits proliferation of vascular smooth muscle cells (protein, UniProt P18075 293-431, looked up)", "Bone morphogenetic protein 7": "STGSKQRSQNRSKTPKNQEALRMANVAENSSSDQRQACKKHELYVSFRDLGWQDWIIAPEGYAAYYCEGECAFPLNSYMNATNHAIVQTLVHFINPETVPKPCCAPTQLNAISVLYFDDSSNVILKKYRNMVVRACGCH"}}, "key": {"[1]": {"system": "human pulmonary aortic vascular smooth muscle cells (HPASMCs)", "experiment": "FGF12 expression regulation by PDGF-BB in HPASMCs (RT-PCR, immunofluorescence)", "format": "cell-based", "source_text": "(§1) Tissue sections and cells were stained with primary antibody against Ki67 (Dako Inc.), FGF12 (Abcam), phospho-p53 (p-p53; Cell Signaling Technology), α-smooth muscle actin (α-SMA; Sigma), or SM22α (Abcam) and proper fluorescence-labeled secondary antibody. Nuclei were stained with 4′,6-diamidino-2-phenylindole (DAPI). The stained cells were observed using a fluorescence microscope (Nikon). All images shown are representative of independent three experiments.\n(§2) Total RNA of cells or tissues for reverse transcription-polymerase chain reaction (RT-PCR) was isolated with TRIzol reagent (Invitrogen). Next, cDNA was synthesized from total RNA using primers specific to corresponding genes and a Superscript first-strand synthesis kit (Invitrogen), and was amplified by PCR (30-35 cycles). Glyceraldehyde-3-phosphate dehydrogenase (GAPDH) was used as a loading control. Real-time PCR was performed using a SYBR-Green PCR master mix (Applied biosystems) and the StepOnePlus™ Real Time PCR System (Applied Biosystems). Data were analyzed according to ΔΔCt method, and gene expression values were normalized to GAPDH expression.\n(§3) Human aortic vascular smooth muscle cells (HASMCs; ScienCell Research Laboratories) and human pulmonary […] vascular smooth muscle cell (HPASMC, ScienCell Research laboratories) were cultured in smooth muscle growth medium (SMGM, ScienCell Research Laboratories) or basal medium. For a compound inhibitor experiment, HASMCs and HPASMCs were pre-treated with pifithrin (10 μM; Sigma), LY294002 (20 μM; Cell Signaling Technology), PD98059 (50 μM; Cell Signaling Technology), U0 126 (10 μM; Cell Signaling Technology), SB203580 (50 μM; Cell Signaling Technology), and BIRB796 (10 μM; Merck) at 37° C. for 24 hours."}, "[2]": {"system": "FGF12 promoter", "experiment": "Luciferase reporter assay with FGF12 promoter", "format": "cell-based, human", "settings": "HASMCs, pGL3-FGF12 reporter, PDGF-BB 50 ng/ml versus removed", "procedure": "For the luciferase reporter assay, approximately 2000 base pairs of the FGF12 5′-UTR were cloned into a firefly luciferase reporter vector (pGL3-phFGF12). HASMCs were co-transfected with an empty vector (pGL3-basic) or pGL3-phFGF12, together with a constitutively active β-galactosidase reporter plasmid as a transfection control. After 48 hours, luciferase and galactosidase activities were analyzed using a luciferase and galactosidase assay kit (Stratagene). The luciferase activity was normalized to galactosidase activity, and expressed as a relative value compared with the luciferase activity measured in HASMCs transfected with pGL3-basic and cultured in a medium containing PDGF-BB (50 ng/ml) for 1 day."}, "[3]": {"system": "human aortic smooth muscle cells (HASMCs)", "experiment": "FGF12 expression regulation by PDGF-BB in HASMCs (RT-PCR, immunofluorescence)", "format": "cell-based", "source_text": "as §1, §2, §3"}, "[4]": {"system": "HASMCs", "experiment": "Cell proliferation by Ki67 staining in HASMCs", "format": "cell-based, human", "settings": "pifithrin 10 μM", "source_text": "as §1\n(§4) For cell proliferation analysis, cells were inoculated triplicate in a 24-well plate, and cultured in the basal medium supplemented with 50 ng/ml platelet-derived growth factor-BB (PDGF-BB; R&D systems), 100 ng/ml Bone morphogenic protein-4 (BMP-4; R&D systems), or 10% FBS. Cell proliferation was determined by an MTS assay (MTS assay; Promega) or immunofluorescence assay using anti-Ki67 IgG (Dako). Five representative color images were randomly acquired from each sample for quantifying Ki67 stained cells (Ki67+ cells), and the percentage of Ki67+ cells was determined through dividing the mean value of Ki67+ cells by the total number of cells on each image."}, "[5]": {"system": "HPASMCs", "experiment": "Cell proliferation by Ki67 staining in HPASMCs", "format": "cell-based, human", "settings": "pifithrin 10 μM", "source_text": "as §1, §4"}, "[6]": {"system": "HPASMC", "experiment": "FGF12 expression regulation by BMP in HPASMC (RT-PCR, Western blotting)", "format": "cell-based, human", "settings": "for FGF12 protein expression / protein expression of vascular smooth muscle cell differentiation markers (α-SMA, SM22α): 30 ng/ml, 48 hours, western blotting; for level of FGF12 mRNA: 48 hours after addition to basal medium (10 and 30 ng/ml), RT-PCR", "procedure": "as §2\nFor transfection for FGF12 overexpression, an expression vector (pCMV6-Entry having the c-terminal labeled Myc-DDK) encoding a rat homologous gene (Origene) having 100% amino acid homology with human FGF12 cDNA was used. HASMCs and HPASMCs were transfected with pCMV6-FGF12(pFGF12) or pCMV6-Entry (pEntry) control vector using Lipofectamien™ 2000 according to the protocol of the manufacturer, and selected using G418 (Sigma) for 2 weeks. For the inhibition of FGF12, p53 or BMPR2 expression, subconfluent HASMCs were transfected with specific or non-specific small interfering RNA (siRNA; GE Healthcare) using Lipofectamien™ 2000.\nCell and tissue lysates were separated by SDS-PAGE, and protein bands were transferred on blots. Blots were reacted with appropriate primary antibodies such as FGF12 (Abcam), p-p53 (Cell Signaling Technology), p53 (BD Biosciences), α-SMA (Sigma), SM22α (Abcam), SM-MHC, or β-actin (Santa Cruz biotechnology), followed by treatment with horseradish peroxidase-conjugated secondary antibodies."}, "[7]": {"settings": "3 hours after PDGF-BB (50 ng/ml) added to basal medium, RT-PCR"}, "[8]": {"settings": "after 24 hours of PDGF-BB stimulation"}}}
{"molecule": "PDGF-BB: platelet-derived growth factor subunit B homodimer, vascular smooth muscle cell mitogen", "values": [{"measurement": "mRNA level of FGF12", "setting": "[1]; [7]", "result": "greatly decreased"}, {"measurement": "expression level of FGF12 (immunofluorescent experiment)", "setting": "[1]; PDGF-BB 50 ng/ml, one day", "result": "decreased"}, {"measurement": "mRNA level of FGF12", "setting": "[1]; [8]", "result": "further decreased"}, {"measurement": "mRNA level of the contractible gene SM-HMC", "setting": "[1]; [8]", "result": "decreased"}, {"measurement": "transcriptional activity of the FGF12 promoter", "setting": "[2]", "result": "inhibits the expression of FGF12 at a transcriptional level"}, {"measurement": "mRNA level of FGF12", "setting": "[3]; [7]", "result": "greatly decreased"}, {"measurement": "expression level of FGF12 (immunofluorescent experiment)", "setting": "[3]; PDGF-BB 50 ng/ml, one day", "result": "decreased"}, {"measurement": "mRNA level of FGF12", "setting": "[3]; [8]", "result": "further decreased"}, {"measurement": "mRNA level of the contractible gene SM-HMC", "setting": "[3]; [8]", "result": "decreased"}, {"measurement": "mRNA level of the proliferation marker gene CDK1", "setting": "[3]; [8]", "result": "increased"}]}
{"molecule": "pifithrin", "values": [{"measurement": "cell proliferation of Ad-FGF12-transfected cells", "setting": "[4]", "result": "significantly improving the cell proliferation"}, {"measurement": "cell proliferation of Ad-FGF12-transfected cells", "setting": "[5]", "result": "significantly improving the cell proliferation"}]}
{"molecule": "B1", "values": [{"measurement": "FGF12 protein expression", "setting": "[6]", "result": "increased"}, {"measurement": "protein expression of vascular smooth muscle cell differentiation markers (α-SMA, SM22α)", "setting": "[6]", "result": "increased"}, {"measurement": "level of FGF12 mRNA", "setting": "[6]", "result": "significantly increased"}]}
{"molecule": "B2", "values": [{"measurement": "FGF12 protein expression", "setting": "[6]", "result": "increased"}, {"measurement": "protein expression of vascular smooth muscle cell differentiation markers (α-SMA, SM22α)", "setting": "[6]", "result": "increased"}, {"measurement": "level of FGF12 mRNA", "setting": "[6]", "result": "significantly increased"}]}
